Results published in patent US6746623B2, “Alkyl glycidyl ether-capped diamine foam controlling agent” (Air Products and Chemicals, Inc., priority 2002, dated 2004).
Marks after values point to notes of the source that are not given here.

Key:
[1] = Dynamic surface tension of aqueous solutions, maximum bubble pressure method; type: physicochemical; details: for γ at 0.1 wt %, 0.1 b/s / γ at 0.1 wt %, 1 b/s / γ at 0.1 wt %, 6 b/s / γ at 0.1 wt %, 20 b/s: 0.1 wt % in distilled water
Description: Dynamic surface tension data were obtained for the soluble portion of these samples using the maximum bubble pressure method at bubble rates from 0.1 bubbles/sec (b/s) to 20 b/s.
The relative efficiency of surface tension reduction can be obtained by comparing surface tension reduction of solutions containing the same amount of different surfactants. Such data are given for 0.1 wt % solutions of the foam control agents at 0.1, 1, 6 and 20 bubbles/second (b/s). The limiting surface tensions at 0.1, 1, 6 and 20 b/s represent the lowest surface tensions in water which can be achieved at the given surface creation rates for a given surfactant regardless of the amount of surfactant used and is used to evaluate the effectiveness of a surfactant. In most cases the limiting surface tension was taken at 1.0 wt % since the foam control agent was insoluble at this concentration. In the case where the foam control agent was soluble at 1.0 wt %, the limiting surface tension was taken at 5.0 wt % (where the samples were insoluble). These values give information about the relative ability to a surfactant to reduce surface defects under near-equilibrium conditions (0.1 b/s) through very dynamic conditions (20 b/s).

[2] = Foam test of DOSS solutions with added foam control agent (based on ASTM D 1173-53); type: physicochemical; details: for Foam height after 1 min / Foam height after 10 min / Initial foam height: 0.1 wt % foam control agent added to 0.1 wt % DOSS in water; for Initial foam height: ambient temperature
Description: Dioctyl sodium sulfosuccinate (DOSS) is a commonly used surfactant in waterborne compositions. DOSS is capable of forming stable foams when dissolved in water. The foam control characteristics of various foam control agents may be assessed by measuring the foam generated by a 0.1 wt % aqueous solution of DOSS and comparing this to the foam generated after the addition of foam control agent to a 0.1 wt % DOSS solution. The DOSS utilized in these measurements was an Aerosol OT 75% surfactant obtained from Cytec Industries. The foaming and foam stability of DOSS were measured using a procedure based upon ASTM D 1173-53 at ambient temperature, typically 23° C.
In these tests, an aqueous solution of DOSS or the filtrate from the DOSS/foam control agent mixture is added from an elevated foam pipette to a foam receiver containing the same solution. The foam height is measured at the completion of the addition (“Initial Foam Height”) and the time required for the foam to dissipate at the air-liquid interface (“Time to 0 Foam”) is recorded. This test provides a comparison between the foaming characteristics of various aqueous compositions. The results for the foam control agents prepared in Examples 1-28 are reported in Table 1 along with comparative data for a 0.1 wt % solution of DOSS with no added foam control agent (Example 29).

[3] = saturated solution made using 1.0 wt % in water
[4] = saturated solution made using 5.0 wt % in water

SMILES | γ at 0.1 wt %, 0.1 b/s [1] [dyne/cm] | γ at 0.1 wt %, 1 b/s [1] [dyne/cm] | γ at 0.1 wt %, 6 b/s [1] [dyne/cm] | γ at 0.1 wt %, 20 b/s [1] [dyne/cm] | γ limiting, 0.1 b/s [1, 3] [dyne/cm] | γ limiting, 1 b/s [1, 3] [dyne/cm] | γ limiting, 6 b/s [1, 3] [dyne/cm] | γ limiting, 20 b/s [1, 3] [dyne/cm] | Foam height after 1 min [2] [cm] | Foam height after 10 min [2] [cm] | Initial foam height [2] [cm] | Effect on foaming of DOSS solution (in words) ([2]; added to the 0.1 wt % aqueous DOSS solution) | γ limiting, 0.1 b/s [1, 4] [dyne/cm] | γ limiting, 1 b/s [1, 4] [dyne/cm] | γ limiting, 6 b/s [1, 4] [dyne/cm] | γ limiting, 20 b/s [1, 4]
CCCCC(CC)COCC(O)CN(CCN(CC(O)COCC(CC)CCCC)CC(O)COCC(CC)CCCC)CC(O)COCC(CC)CCCC (stereo not drawn) [EDA/4 EHGE] | 60.7 | 67.9 | 71.0 | 71.7 | 44.4 | 50.6 | 51.0 | 52.1 | 2.5 | 2.1 | 3.0 |  |  |  |  | 
CCCCOCC(O)CN(CCCOCCOCCOCCCN(CC(O)COCCCC)CC(O)COCCCC)CC(O)COCCCC (stereo not drawn) [DAPDEG/4 BGE] | 37.4 | 38.9 | 42.0 | 50.7 | 34.2 | 34.5 | 35.5 | 39.1 | 1.2 | 0.2 | 2.3 |  |  |  |  | 
CCCCC(CC)COCC(O)CNCCN(CC(O)COCC(CC)CCCC)CC(O)COCC(CC)CCCC (stereo not drawn) [EDA/3 EHGE] | 45.3 | 58.7 | 70.5 | 70.9 | 33.5 | 36.0 | 47.1 | 48.7 | 1.5 | 1.2 | 2.1 |  |  |  |  | 
CCCCOCC(O)CNCCN (racemic) [EDA/1 BGE] | 46.1 | 49.4 | 53.4 | 59.9 | 36.7 | 37.2 | 38.1 | 39.8 | 2.0 | 1.4 | 3.5 | increase in foaming |  |  |  | 
CCCCOCC(O)CN(CCCCCCN(CC(O)COCCCC)CC(O)COCCCC)CC(O)COCCCC (stereo not drawn) [HDA/4 BGE] | 42.9 | 55.9 | 67.6 | 70.8 | 37.3 | 39.0 | 40.8 | 41.9 | 1.3 | 1.2 | 1.5 |  |  |  |  | 
CCCCOCC(O)CN(CCCC(C)CN(CC(O)COCCCC)CC(O)COCCCC)CC(O)COCCCC (stereo not drawn) [MPD/4 BGE] | 42.8 | 55.7 | 67.5 | 67.7 | 35.3 | 36.4 | 38.9 | 41.5 | 1.5 | 0.5 | 2.5 |  |  |  |  | 
CCCCOCC(O)CNCCCOCCOCCOCCCN (stereo not drawn) [DAPDEG/1 BGE] | 50.3 | 54.1 | 56.7 | 61.0 | 36.4 | 40.3 | 42.9 | 45.7 | 0.8 | 0.2 | 1.7 |  |  |  |  | 
CCCCOCC(O)CNCCCCCCN(CC(O)COCCCC)CC(O)COCCCC (stereo not drawn) [HDA/3 BGE] | 40.3 | 43.1 | 47.5 | 55.4 | 37.9 | 39.1 | 40.7 | 44.4 | 0 | 0 | 1.2 |  |  |  |  | 
CCCCOCC(O)CNC1CCC(CC2CCC(N)CC2)CC1 (mixture of isomers) [PACM/1 BGE] | 44.7 | 47.0 | 50.3 | 55.2 | 43.5 | 44.5 | 46.2 | 48.7 | 0 | 0 | 2.3 |  |  |  |  | 
CC(C)COCC(O)CNCCN (racemic) [EDA/1 IBGE] | 47.9 | 51.9 | 53.8 | 59.6 |  |  |  |  | 1.0 | 0.3 | 1.5 |  | 29.7 | 30.1 | 30.5 | 31.7^b dyne/cm
CCCCOCC(O)CNCCN(CC(O)COCCCC)CC(O)COCCCC (stereo not drawn) [EDA/3 BGE] | 37.6 | 39.6 | 43.2 | 51.3 | 34.9 | 35.6 | 36.5 | 38.3 | 1.4 | 1.2 | 2.0 |  |  |  |  | 
CCCCOCC(O)CN(CCN(CC(O)COCCCC)CC(O)COCCCC)CC(O)COCCCC (stereo not drawn) [EDA/4 BGE] | 36.7 | 38.9 | 44.4 | 58.4 | 35.9 | 37.0 | 39.2 | 43.0 | 1.3 | 1.2 | 1.9 |  |  |  |  | 
CCCCOCC(O)CNCCCCCCN (racemic) [HDA/1 BGE] | 42.3 | 44.8 | 47.9 | 52.6 | 39.3 | 40.1 | 41.1 | 42.9 | 0.4 | 0 | 1.4 |  |  |  |  | 
